Measured values taken from patent US20130253179A1, “Functionalization Processes and Reactants Used in Such Processes Using an Isatoic Anhydride or a Derivative Thereof, Biological Molecules Thus Treated and Kits” (priority 2010, published 2013).

Columns and labels:
[1] = test system: in vitro RNA transcripts (IVT); assay: Functionalisation of in vitro RNA transcripts, Cy3 and RNA assay, DoL (Degree of Labelling); format: biochemical, human
Method: The in vitro transcripts are generated in the same way as described in example 8. In this example, we have used four concentrations of functionalisation molecule Cy3 IA Me (13) in order to determine the most appropriate concentration for detection of the most sensitive functionalised IVTs.
6 μg of in vitro transcripts are taken up in a total volume of 20 μL of a 10 mM solution of Zn(OAc)2 pH 6.5. The solution is incubated for 15 min at 70° C. in order to partially fragment the RNA until a majority of fragments are obtained which are of a size between 25 and 200 bases. After this incubation, the solution is immediately put into ice.
11 μL of the transcript solution is mixed with 4 μL of a 500 mM solution of NaHCO3 pH 8-8.5, and with 5 μL of a 120, 240, 360 or 480 mM solution of Cy3 IA Me (13) in DMSO, to obtain 30, 60, 90 or 120 mM solutions of functionalisation reagent, respectively. These solutions are incubated at 65° C. for one hour.
The excess of functionalisation reagent as well as that of the different salts are eliminated by isopropanol precipitation then by acetone precipitation. To do this, 6 μL of 3M sodium acetate (i.e. 30% by volume) and 14 μL of isopropanol (i.e. 70% by volume) are added to the functionalisation solution. Vortex stirring is performed and centrifuging is performed for 30 mins at 14,000 rpm (20,800 g) at 4° C. The supernatant is eliminated and then the pellet is rinsed with 50 μL of 70% ethanol. Centrifuging is carried out again for 15 mins at 14,000 rpm (20,800 g) at 4° C., and the supernatant is eliminated.
280 μL of water, 18 μL of 3M LiClO4 and 900 μL of acetone are added to the pellet. Vortex stirring is performed, centrifuging is performed and the supernatant is eliminated. Next, 280 μL of water, 18 μL of 3M LiClO4 and 900 μL of acetone are added to the pellet. Vortex stirring is performed, centrifuging is performed and the supernatant is eliminated. The pellet is rinsed with 50 μL of 70% ethanol and then centrifuging is carried out for 15 mins at 14,000 rpm (20,800 g) at 4° C. The supernatant is eliminated, and the pellet is dried under vacuum with the rotary evaporator before the pellet is taken up in 20 μL of water (i.e. [in vitro transcripts]theoretical=[…]).
In order to determine the quantity of functionalised in vitro transcripts recovered after these different treatments, 1.2 μl of each end solution are assayed by UV spectrophotometry at 260 nm (Nanodrop 100, Thermo Scientific Waltham, USA). An assay is also carried out at 550 nm in order to learn the Cy3 functionalisation rate of the in vitro transcripts (% of Cy3 molecules per 100 nucleosides). This value is also known under the name DoL (Degree of Labelling) and is calculated with the following equation: DoL (in %)=100×(340×[Cy3])/(1000×[RNA]). […]

MAQC RNA = assay: DoL of MAQC total RNA after zinc acetate cleaving and alkaline phosphatase treatment; format: biochemical, human; conditions: compound 15 mM
Method: The panel of RNA strands is MAQC RNA (Stratagene Reference: #74000). This total RNA (ribosomal and messenger) is directly extracted from ten lines of human cells of different origin: brain, breast, B Lymphocyte, uterine cervix, liver, liposarcoma, macrophage, skin, testicle, Lymphocyte T.
The functionalisation protocol is the same as that described in example 9, i.e.: • 12 μg of MAQC0 RNA is incubated, or not, with a Zinc acetate solution. • The mixture is precipitated with isopropanol. • 7 units of alkaline phosphatase (P7923-2KU Sigma-Aldrich) are added to the mixture, […] There is then added to the mixture the molecule Cy3-IA Me 13 at 15 mM in a NaHCO3 buffer (100 mM/DMSO 75/25 pH 8-8.5), with a total volume of 80 μl. The mixture is incubated for 1 h at 65° C. • The mixture is precipitated once again with isopropanol, then twice with acetone, before the DoL is measured as described in example 9.

CCN1/C(=C\C=C\C2=[N+](CCCCCC(=O)Nc3ccc4c(c3)c(=O)oc(=O)n4C)c3ccc(S(=O)(=O)[O-])cc3C2(C)C)C(C)(C)c2cc(S(=O)(=O)[O-])ccc21.[K+] [Cy3 IA Me 13, 1-methyl 5-Cy3-isatoic anhydride]
DoL ([1]; 30 mM compound in the solution): 0.8%
DoL ([1]; 60 mM compound in the solution): 1.7%
DoL ([1]; 90 mM compound in the solution): 2%
DoL ([1]; 120 mM compound in the solution): 2.7%
DoL (MAQC RNA; 10 mM Zn(OAc)2 0 mins, AP hydrolysis 0): 1.7%
DoL (MAQC RNA; 10 mM Zn(OAc)2 0 mins, AP hydrolysis 4 h): 1.5%
DoL (MAQC RNA; 10 mM Zn(OAc)2 15 mins, AP hydrolysis 0): 1.7%
DoL (MAQC RNA; 10 mM Zn(OAc)2 15 mins, AP hydrolysis 4 h): 2.5%
